From ChEMBL document CHEMBL1154623, “S-glycosyl primary sulfonamides--a new structural class for selective inhibition of cancer-associated carbonic anhydrases” (J Med Chem, 2009)

What was measured:
[1] = biological target: Carbonic anhydrase 9 (Homo sapiens, UniProt Q16790)
Description: Inhibition of human cloned CA9 catalytic domain by stopped flow CO2 hydration assay

[2] = Apparent effective permeability by PAMPA method; format: ADME; conditions: read-out: permeability
[3] = Chemical stability during PAMPA assessed as compound degradation; format: physicochemical; conditions: read-out: Activity

**Q.** Which Ki [1] does the source give for CC(=O)OC[C@H]1O[C@@H](O[C@H]2[C@H](OC(C)=O)[C@@H](OC(C)=O)[C@H](S(N)(=O)=O)O[C@@H]2COC(C)=O)[C@H](OC(C)=O)[C@@H](OC(C)=O)[C@H]1OC(C)=O here?
**A.** 4.03 µM

**Q.** With NS(=O)(=O)[C@@H]1O[C@H](CO)[C@@H](O[C@H]2O[C@H](CO)[C@@H](O)[C@H](O)[C@H]2O)[C@H](O)[C@H]1O as the compound, how does the Ki [1] read?
**A.** 4.22 µM

**Q.** What about the Papp [2] of the same compound?
**A.** < 0.5 ×10⁻⁶ cm/s

**Q.** Which Papp [2] does the source give for CC1(C)O[C@@H]2[C@@H](CO[C@@]3(COS(N)(=O)=O)OC(C)(C)O[C@@H]23)O1 [TOPIRAMATE] here?
**A.** 0.54 ×10⁻⁶ cm/s

**Q.** For NS(=O)(=O)[C@@H]1O[C@H](CO)[C@H](O)[C@H](O)[C@H]1O, which Ki [1] is on record?
**A.** 4.19 µM

**Q.** With CC(=O)OC[C@H]1O[C@@H](S(N)(=O)=O)[C@H](OC(C)=O)[C@@H](OC(C)=O)[C@@H]1O[C@H]1O[C@H](COC(C)=O)[C@@H](OC(C)=O)[C@H](OC(C)=O)[C@H]1OC(C)=O as the compound, how does the Ki [1] read?
**A.** 4.08 µM

**Q.** And the Papp [2]?
**A.** < 0.02 ×10⁻⁶ cm/s

**Q.** For COC(=O)[C@H]1O[C@@H](S(N)(=O)=O)[C@H](OC(C)=O)[C@@H](OC(C)=O)[C@@H]1OC(C)=O, which Ki [1] is on record?
**A.** 4.15 µM

**Q.** For NS(=O)(=O)[C@@H]1O[C@H](CO)[C@@H](O[C@@H]2O[C@H](CO)[C@H](O)[C@H](O)[C@H]2O)[C@H](O)[C@H]1O, which Ki [1] is on record?
**A.** 4.19 µM

**Q.** Which results are given for CC(=O)OC[C@H]1O[C@@H](S(N)(=O)=O)[C@H](OC(C)=O)[C@@H](OC(C)=O)[C@@H]1OC(C)=O?
**A.** Ki [1]: 3.91 µM; Papp [2]: < 0.1 ×10⁻⁶ cm/s; degraded [3]: 35%

**Q.** For CC(=O)OC[C@H]1O[C@@H](S(N)(=O)=O)[C@H](OC(C)=O)[C@@H](OC(C)=O)[C@H]1OC(C)=O, which Ki [1] is on record?
**A.** 4.09 µM

**Q.** What does the source list for NS(=O)(=O)[C@@H]1O[C@H](CO)[C@@H](O)[C@H](O)[C@H]1O?
**A.** Ki [1]: 4.05 µM; Papp [2]: < 0.4 ×10⁻⁶ cm/s

**Q.** With CC(=O)Nc1nnc(S(N)(=O)=O)s1 [ACETAZOLAMIDE] as the compound, how does the Papp [2] read?
**A.** < 0.15 ×10⁻⁶ cm/s
